The results in this text go back to EP0049797A2, “Anthelminticum containing 2-(2,3-dimethyl-phenoxy-methyl)-2-imidazoline” (BAYER AG, priority 1980, dated 1982).

Assay [1] has as its system Haemonchus contortus normaler Stamm. Description: Stomach and intestinal worm test in sheep (faecal egg count reduction), normal strain. The format is in vivo, Schaf. Conditions: read-out: Dosis effectiva minima (Red. 90 % in mg/kg). An excerpt:
(§1) Magen- und Darmwurmtest/Schaf
(§2) Experimentell mit Haemonchus contortus infizierte Schafe wurden nach Ablauf der Präpatenzzeit der Parasiten behandelt. Die Wirkstoffmenge wurde als reiner Wirkstoff in Gelatinekapseln oral appliziert oder in einem geeigneten Lösungsmittel gelöst und subcutan oder dermal appliziert.
(§3) Der Wirkungsgrad wird dadurch bestimmt, daß man die mit dem Kot ausgeschiedenen Wurmeier vor und nach der Be-handlung quantitativ auszählt.
(§4) Ein völliges Sistieren der Eiausscheidung nach der Behandlung bedeutet, daß die Würmer abgetrieben wurden oder so geschädigt sind, daß sie keine Eier mehr produzieren können (Dosis effectiva). Geprüfte Wirkstoffe und wirksame Dosierungen (dosis effectiva minima) sind aus der nachfolgenden Tabelle ersichtlich.

The test system of assay [2] is Haemonchus contortus gegen Benz-imidazole resistenter Stamm. Kind of assay: Stomach and intestinal worm test in sheep (faecal egg count reduction), benzimidazole-resistant strain. Conditions: read-out: Dosis effectiva minima (Red. 90 % in mg/kg), per os, experimentally infected sheep. In kind it is in vivo, Schaf.
Source text: as §1, §2, §3, §4

The mark [3] stands for this setting: per os, experimentally infected sheep, normaler Stamm.

Read-outs that look alike come from different tables or passages of the source.

On to `Cc1cccc(OCC2=NCCN2)c1C` [2-(2,3-Dimethyl-phenoxymethyl)-2-imidazolin], for which the minimal effective dose worked out at 1 mg/kg in assay [1] (dermal, experimentally infected sheep, normaler Stamm); 0.5 mg/kg in assay [1] (setting [3]); 0.5 mg/kg in assay [1] (subcutan, experimentally infected sheep, normaler Stamm).

Take `CCCSc1ccc2nc(NC(=O)OC)[nH]c2c1` [Albendazol]: the values for the minimal effective dose in assay [1] and in assay [2] were 0.5 mg/kg and 5 mg/kg, respectively.

As to `CCCCc1ccc2[nH]c(NC(=O)OC)nc2c1` [Parbendazol], the minimal effective dose was 1 mg/kg in assay [1] and 10 mg/kg in assay [2].

`c1ccc2[nH]c(-c3cscn3)nc2c1` [Thiabenzol]: the minimal effective dose in assay [1] (setting [3]) turned out to be 25 mg/kg; in assay [2], 250 mg/kg.
